# Experimental data published in patent US20240336567A1, “PESTICIDAL AND HERBICIDAL COMPOUNDS AND METHODS OF USE THEREOF” (AG Plenus Ltd, priority 2021, published 2024).
# Key:
# POAAN = assay: In-planta LTP post-emergence, visual phenotype; assay type: in vivo, Poa annua; conditions: monocot
# Method: (§1) A basic panel of eight weed species (Table 3) sowed in 4×4×7 cm plastic pots containing a garden mix (klasmann). Each specie was sowed in a separate pot. In each pot, 10-15 seeds were sowed according to the specie viability. Timing of application determined at a 1-2 true leaf stage. The plants grew for 30 days in a controlled greenhouse (26±2° C. day, 20±2° C. night). Hood irrigation (tap water+Shefer 5:3:8 8 mM) was given at a 50% water content by weight. Two days before application, the tested plants thinned down to three plants per pot. Compounds were soluble in water (DDW), and commercial herbicide control was soluble in formulation B (Table 4). […] Plants were evaluated at 3 time points (4, 8, 12 days after application (DAA)). At each time point, visual phenotyping was recorded using a scale of 0-6 (0: no visible effect, 6: maximum effect). […]
# (§2) Post-emergence advanced dose response experiment included 4 species: SETVI, ECHCO, AMAPA, ABUTH (Tables 3, 5). […] Plants were evaluated at 4 time points (6, 12, 18 and 26 DAA). At each time point, visual phenotyping was recorded using a scale of 0-6 (0: no visible effect, 6: maximum effect). […]
# (§3) Post-emergence advanced wide panel experiment included 24 weed species (Table 5). […] Visual phenotyping was recorded at 4, 11, 17 and 20 DAA using a scale of 0-6 (0: no visible effect, 6: maximum effect). […]
# ECHCO = assay: In-planta LTP post-emergence, visual phenotype; assay type: in vivo, Echinochloa colona; conditions: monocot
# Method: as §1, §2, §3
SMILES,IG Inhibited growth (% effect) (POAAN),IG Inhibited growth (% effect) (ECHCO)
C[C@@H](N)COc1cccc(C(=O)O)c1 [Compound 154],IG (60) %,–
CC(N)COc1cccc(C(=O)O)c1 (centres unmarked) [Compound 106],–,IG^1 (60) %
